Experimental data from patent US9586957B2, “2-keto amide derivatives as HIV attachment inhibitors” (priority 2013, dated 2017).
Read-outs that look alike come from different tables or passages of the source.

Tested on: HIV-1 LAI
Assay: Single-round infectious HIV-1 LAI envelope luciferase reporter virus infection of MT2 cells
Format: cell-based
Conditions: Human immunodeficiency virus 1, MT2, 72 h
From the text: • Virus production—Human embryonic Kidney cell line, 293T (HEK 293T), was propagated in Dulbecco's Modified Eagle Medium (Invitrogen, Carlsbad, Calif.) containing 10% fetal bovine serum (FBS, Sigma, St. Louis, Mo.). The human T-cell leukemia cell MT2 (AIDS Research and Reference Reagent Program, Cat. 237) was propagated in RPMI 1640 (Invitrogen, Carlsbad, Calif.) containing 10% fetal bovine serum (FBS, Hyclone, Logan, Utah) • Virus infection—Single-round infectious reporter virus was produced by co-transfecting HEK 293T cells with plasmide expressing the HIV-1 LAI envelope along with a plasmid containing an HIV-1 LAI proviral cDNA with the envelope gene replaced by a firefly luciferase reporter gene (Chen et al., Ref 41). Transfections were performed using lipofectAMINE PLUS reagent as described by the manufacturer (Invitrogen, Carlsbad, Calif.). Experimental Procedure • 1. MT2 cells were plated in black, 384 well plates at a cell density of 5×10^3 cells per well in 25 μl RPMI 1640 containing 10% FBS. • 2. Compound (diluted in dimethylsulfoxide and growth medium) was added to cells at 12.5 μl/well, so that the final assay concentration would be ≦50 nM. • 3. 12.5 μl of single-round infectious reporter virus in Dulbecco's Modified Eagle
Medium was added to the plated cells and compound at an approximate multiplicity of infection (MOI) of 0.01, resulting in a final volume of 50 μl per well. • 4. Virus-infected cells were incubated at 37 degrees Celsius in a CO2 incubator and harvested 72 h after infection. • 5. Viral infection was monitored by measuring luciferase expression in the infected cells using a luciferase reporter gene assay kit (Steady-Glo, Promega, Madison, Wis.) as described by the manufacturer. Luciferase activity was then quantified by measuring luminescence using an EnVision Multilabel Plate Readers (PerkinElmer, Waltham, Mass.). • 6. The percent inhibition for each compound was calculated by quantifying the level of luciferase expression in cells infected in the presence of each compound as a percentage of that observed for cells infected in the absence of compound and subtracting such a determined value from 100. • 7. An EC50 provides a method for comparing the antiviral potency of the compounds of the invention. The effective concentration for fifty percent inhibition (EC50) was calculated with the Microsoft Excel Xlfit curve fitting software. For each compound, curves were generated from percent inhibition calculated at 10 different concentrations by using a four parameter logistic model (model 205). Table 1 is the key for the data in Table 2.

[1] = read-out: EC50 Group from Table 1

O=C(C(=O)N1CCC(c2ccccc2)C1)c1c[nH]c2c(-n3ccnn3)ncc(F)c12 (centres unmarked) [Compound 1001]
EC50: 38.1 nM | EC50 [1]: < 500 nM

O=C(C(=O)N1CCC[C@H](c2ccccc2)C1)c1c[nH]c2c(-n3ccnn3)ncc(F)c12 [Compound 1002]
EC50 [1]: < 500 nM

O=C(C(=O)N1CCCC(c2ccc(Cl)cc2)C1)c1c[nH]c2c(-n3ccnn3)ncc(F)c12 (centres unmarked) [Compound 1003]
EC50 [1]: > 500 nM

O=C(C(=O)N1CCCC(c2cccc(F)c2)C1)c1c[nH]c2c(-n3ccnn3)ncc(F)c12 (centres unmarked) [Compound 1004]
EC50 [1]: > 500 nM

O=C(C(=O)N1CCCC(Cc2ccccc2)C1)c1c[nH]c2c(-n3ccnn3)ncc(F)c12 (centres unmarked) [Compound 1005]
EC50 [1]: > 500 nM

O=C(C(=O)N1CCCC(c2ccccc2)CC1)c1c[nH]c2c(-n3ccnn3)ncc(F)c12 (centres unmarked) [Compound 1006]
EC50 [1]: < 500 nM

O=C(C(=O)N1CCC(Nc2ccccc2)C1)c1c[nH]c2c(-n3ccnn3)ncc(F)c12 (centres unmarked) [Compound 1007]
EC50 [1]: < 500 nM

COc1cnc(-n2cnc(C)n2)c2[nH]cc(C(=O)C(=O)N3CCC(=C(C#N)c4ccccc4)C3)c12 [Compound 1008]
EC50: 18.9 nM | EC50 [1]: < 500 nM

O=C(C(=O)N1CCC(Oc2ccccc2)CC1)c1c[nH]c2c(-n3ccnn3)ncc(F)c12 [Compound 1009]
EC50 [1]: < 500 nM

O=C(C(=O)N1CCC(Nc2ccccc2)CC1)c1c[nH]c2c(-n3ccnn3)ncc(F)c12 [Compound 1010]
EC50: 41.8 nM | EC50 [1]: < 500 nM

CCC(=O)N(c1ccccc1)C1CCN(C(=O)C(=O)c2c[nH]c3c(-n4ccnn4)ncc(F)c23)CC1 [Compound 1011]
EC50 [1]: < 500 nM

COc1ccnc2[nH]cc(C(=O)C(=O)N3CCC(Oc4ccccc4)CC3)c12 [Compound 1012]
EC50 [1]: < 500 nM

COc1ncc(OC)c2c(C(=O)C(=O)N3CCC(Oc4ccccc4)CC3)c[nH]c12 [Compound 1013]
EC50 [1]: > 500 nM

COc1ccnc2[nH]cc(C(=O)C(=O)N3CCC(Oc4ccc(Cl)cc4)CC3)c12 [Compound 1014]
EC50: 757 nM | EC50 [1]: > 500 nM

COc1ncc(OC)c2c(C(=O)C(=O)N3CCC(Oc4ccc(Cl)cc4)CC3)c[nH]c12 [Compound 1015]
EC50 [1]: > 500 nM

O=C(C(=O)N1CCCC(Oc2ccccc2)C1)c1c[nH]c2cccc(F)c12 (centres unmarked) [Compound 1016]
EC50 [1]: > 500 nM

NC(=O)C1(Nc2ccccc2)CCN(C(=O)C(=O)c2c[nH]c3ccccc23)CC1 [Compound 1017]
EC50 [1]: > 500 nM

O=C(C(=O)N1CCC(Nc2cccc(S(=O)(=O)C(F)(F)F)c2)CC1)c1c[nH]c2ccccc12 [Compound 1018]
EC50 [1]: > 500 nM

O=C(C(=O)N1CCC(c2cccc(C(F)(F)F)c2)C(O)C1)c1c[nH]c2ccccc12 (centres unmarked) [Compound 1019]
EC50 [1]: > 500 nM

COc1ccc(OC2CN(C(=O)C(=O)c3c[nH]c4c(-n5ccnn5)ncc(F)c34)C2)cc1 [Compound 1020]
EC50 [1]: < 500 nM

COc1cnc(-n2cnc(C)n2)c2[nH]cc(C(=O)C(=O)N3CCc4ncn(-c5ccccc5)c4CC3)c12 [Compound 2001]
EC50: 0.09 nM | EC50 [1]: < 500 nM

COc1cnc(-n2cnc(C)n2)c2[nH]cc(C(=O)C(=O)N3CCc4nn(-c5ccccc5)cc4C3)c12 [Compound 2002]
EC50: 0.92 nM | EC50 [1]: < 500 nM

COc1cnc(-n2cnc(C)n2)c2[nH]cc(C(=O)C(=O)N3Cc4nn(-c5ccccc5)c(N)c4C3)c12 [Compound 2003]
EC50 [1]: < 500 nM
